Measured values as given in patent US8728977B2, “Herbicidal combinations comprising tefuryltrione for use in rice crops” (Bayer Cropscience AG, priority 2009, dated 2014).
Like-named read-outs stand apart in the source and are kept apart here.

Tested on: LEFCH (Leptochloa chinensis)
Assay: Post-emergence action against LEFCH (greenhouse pot test, visual evaluation)
Format: in vivo
Conditions: for pest or weed control at 50 g/ha: read-out: Action against LEFCH
Description: The herbicidal activity of the active substances or active substance mixtures was evaluated visually from the treated variants in comparison with untreated control variants. In this connection, damage to and development of all plant parts above ground was included. The evaluation was carried out according to a percentage scale (100% action=all plants dead; 50% action=50% of the plants and green plant parts dead; 0% action=no recognizable action=as untreated control plot).
Seeds or root pieces of mono- and dicotyledonous weeds are placed in sandy clay soil in pots, covered with earth and secured in a greenhouse under good growing conditions (temperature, air humidity, water supply). Approximately three weeks after sowing, the test plants are treated with the compositions according to the invention. The compositions according to the invention formulated as wettable powders or as emulsion concentrates are sprayed, in spray application, on to the green plant parts in different dosages with a water application rate of 600 to 800 I/ha (corrected). Immediately up to a few days after application, the test receptacles accumulate water over the ground surface by up to 30 mm. With the water application (submerged application), on the other hand, the ground in the closed test receptacle is already covered with the paddy water up to 30 mm at the time of the application. The formulated active substances are here added directly to the paddy water. After an exposure time of the test plants in the greenhouse of an additional 3 to 4 weeks under optimum growing conditions, the effect of the preparations is evaluated visually in comparison with untreated controls. […] In this connection, actions of the combinations according to the invention which exceed the formal sum of the actions of the herbicides when applied individually are frequently observed. The values observed for the tests show, with suitable low dosages, an action of the combinations which lies above the expected values according to Colby.
If the observed activity values already exceed the formal sum of the values for the tests with individual applications, then they likewise exceed the expected value according to Colby, which is calculated according to the following formula and is likewise regarded as an indication of synergy (cf. S. R. Colby in Weeds, 15 (1967), pp. 20 to 22):
[formula] In this connection: • A, B=action of the component A or B in percent at a dosage of a or b grams ai/ha. • E=expected value in % at a dosage of a+b grams ai/ha.
The abbreviation LEFCH is the harmful plant Leptochloa chinensis.

[1] = dosage 50 g/ha, single herbicide
[2] = Dinebra chinensis, dosage 50 g/ha, single herbicide
[3] = dosage 12.5 g/ha, single herbicide
[4] = dosage 75 g/ha, single herbicide
[5] = dosage 2.5 g/ha, single herbicide

Cn1nc(C(F)(F)F)c(CS(=O)(=O)C2=NOC(C)(C)C2)c1OC(F)F [Compound B17, pyroxasulfone]
pest or weed control at 7.5 g/ha (Dinebra chinensis, dosage 7.5 g/ha, single herbicide): 15%

CC(C)N(C)S(=O)(=O)NC(=O)c1cc(-n2c(=O)cc(C(F)(F)F)n(C)c2=O)c(F)cc1Cl [Compound B19, saflufenacil]
pest or weed control at 3 g/ha (Dinebra chinensis, dosage 3 g/ha, single herbicide): 8%

CC(C)N(C(=O)n1cnn(-c2ccc(Cl)cc2Cl)c1=O)c1ccc(F)cc1F [Compound B7, ipfencarbazone]
Action against LEFCH [1]: 25%

CCc1cc(C)cc(CC)c1-c1c(OC(=O)C(C)(C)C)n2n(c1=O)CCOCC2 [Compound B11, pinoxaden]
pest or weed control at 10 g/ha (Dinebra chinensis, dosage 10 g/ha, single herbicide): 15%

COc1cc(OC)nc(NC(=O)NS(=O)(=O)Nc2ccccc2C(=O)C2CC2)n1 [Compound B4, cyclosulfamuron]
pest or weed control at 50 g/ha [2]: 20%

CC(C)c1nn(C(=O)NC(C)(C)C)c(=O)n1N [Compound B1, amicarbazone]
Action against LEFCH [3]: 10%

C[C@@H](Oc1ccc(Oc2nc3ccc(Cl)cc3o2)cc1)C(=O)N(C)c1ccccc1F [Compound B8, metamifop]
Action against LEFCH [4]: 15%

COc1cc(OC)nc(NC(=O)NS(=O)(=O)Nc2ccccc2C(=O)N(C)C)n1 [Compound B9, orthosulfamuron]
Action against LEFCH (dosage 30 g/ha, single herbicide): 40%

Cc1ccc2c(c1)[C@H](Nc1nc(N)nc(C(C)F)n1)[C@@H](C)C2 (stereo partly shown) [Compound B5, indaziflam]
Action against LEFCH [5]: 25%

COC(=O)c1nc(C2CC2)nc(N)c1Cl [Compound B3, aminocyclopyrachlor-methyl]
Action against LEFCH [1]: 10%

C#CCN(C)c1c(C#N)cnn1-c1nn2c(c1Cl)CCCC2 [Compound B13, pyraclonil]
Action against LEFCH [4]: 30%

COCC(=O)OC(c1ncccc1S(=O)(=O)NC(=O)Nc1nc(OC)cc(OC)n1)C(C)F (stereo not shown) [Compound B6, flucetosulfuron]
Action against LEFCH [5]: 20%

CS(=O)(=O)c1ccc(C(=O)C2C(=O)CCCC2=O)c(Cl)c1COCC1CCCO1 (stereo not shown) [tefuryltrione]
Action against LEFCH [1]: 20%

COc1cc(OC)nc(NC(=O)NS(=O)(=O)c2c(C3=NOCC(C)O3)c(Cl)nn2C)n1 (stereo not shown) [Compound B20, 3-chloro-N-[(4,6-dimethoxypyrimidin-2-yl)carbamoyl]-1-methyl-4-(5-methyl-5,6-dihydro-1,4,2-dioxazin-3-yl)-1H-pyrazole-5-sulfonamide]
pest or weed control at 50 g/ha [2]: 15%

COCc1cccc(C(O)c2nc(OC)cc(OC)n2)c1NS(=O)(=O)C(F)F (stereo not shown) [Compound B15, pyrimisulfan]
Action against LEFCH [1]: 20%

Cc1nn(C)c(O)c1C(=O)c1ccc(C(F)(F)F)cc1S(C)(=O)=O [Compound B14, pyrasulfotole]
Action against LEFCH [3]: 30%

COc1cnc(OC)n2nc(NS(=O)(=O)c3c(OCC(F)F)cccc3C(F)(F)F)nc12 [Compound B10, penoxsulam]
pest or weed control at 15 g/ha (Dinebra chinensis, dosage 15 g/ha, single herbicide): 20%

CCCc1ccc2nc(Cl)c(S(=O)(=O)NC(=O)Nc3nc(OC)cc(OC)n3)n2n1 [Compound B12, propyrisulfuron]
Action against LEFCH [1]: 30%

COC(=O)c1nc(-c2ccc(Cl)c(OC)c2F)cc(N)c1Cl [Compound B22, methyl 4-amino-3-chloro-6-(4-chloro-2-fluoro-3-methoxyphenyl)pyridine-2-carboxylate]
pest or weed control at 50 g/ha (Dinebra chinensis): 10%

Nc1cc(Cl)nc(C(=O)O)c1Cl [Compound B2, aminopyralid]
Action against LEFCH (dosage 7.5 g/ha, single herbicide): 30%

COc1cc(OC)n2nc(NS(=O)(=O)c3c(C(F)(F)F)ccnc3OC)nc2n1 [Compound B18, pyroxsulam]
Action against LEFCH (dosage 15 g/ha, single herbicide): 20%

COCCOCc1nc(C(F)(F)F)ccc1C(=O)C1C(=O)C2CCC(C2)C1=O (stereo not shown) [Compound B23, 3-({2-[(2-methoxyethoxy)methyl]-6-(trifluoromethyl)pyridin-3-yl}-carbonyl)bicyclo[3.2.1]octane-2,4-dione]
pest or weed control at 12.5 g/ha (Dinebra chinensis, dosage 12.5 g/ha, single herbicide): 25%
